In patent publication US20110301162A1, “AURORA KINASE MODULATORS AND METHODS OF USE” (AMGEN INC., priority 2008, published 2011):

Tests used:
HeLa cells = assay: HeLa cell 24 hr ploidy assay; assay type: cell-based; settings: Homo sapiens, 24 hrs treatment, DNA ploidy, average, read-out: 24h_4N Ploidy EC50_IP (uM Avg)
Experimental: The purpose of this assay is to evaluate the ability of selected individual compounds to induce Deoxyribonucleic acid (DNA) content (ploidy) in cells through failed cell division. Cell cycle analysis is a rapid and efficient way to evaluate the status of DNA content (ploidy) of a given cell. HeLa cells (1×10^4 HeLa cells/well) in 100 ul of media (MEM+10% FBS) were plated in 96-well plates (Packard View) and cultured for 24 hrs at 37° C. maintained in a 5% CO2 atmosphere. The following day, cells were treated for 24 hrs with inhibitor compounds (10 pt. Dose ranging from 0.0024-1.25 umol/L). The compounds were serially diluted in DMSO (0.25% final concentration). The cells were fixed (3.7% Formaldehyde and 1% glutaraldehyde) and permeabilized (1×PBS with 1% BSA an d0.2% Triton X-100) in preparation for nuclear staining. The well plates were stained for 45 minutes at RT in the dark using Hoechest 33342 nuclear stain at 0.5 ug.ml (Stock of 10 mg/ml, Invitrogen, Calif., Cat #H3570). The nuclear stain was removed by aspiration and the cells were washed with wash buffer. A Cellomics Array Scan Vti plate reader was used to acquire the DNA ploidy data of the cells using Cell Cycle bioapplication. Numbers for each of “valid cell count/well”, “% of 4N cells” and “% of >4Ncells” were calculated with the assistance of an Activity Base 5.1ca software and dose curves were generated using an XLFit software. With XLFit, final EC50 IP and EC50 transit values, as well as the Max and Min, were calculated for each curve.

AuroraB = target: T1, AuroraB (Homo sapiens, UniProt Q96GD4); assay: AuroraB Homogeneous Time Resolved Fluorescent (HTRF) kinase assay; assay type: biochemical; settings: average; ATP 23 μM; read-out: AurB_IC50_IP (uM Avg)
T1 construct: 20 μL of AuroraB FL His; His
T1 sequence (Q96GD4 whole entry): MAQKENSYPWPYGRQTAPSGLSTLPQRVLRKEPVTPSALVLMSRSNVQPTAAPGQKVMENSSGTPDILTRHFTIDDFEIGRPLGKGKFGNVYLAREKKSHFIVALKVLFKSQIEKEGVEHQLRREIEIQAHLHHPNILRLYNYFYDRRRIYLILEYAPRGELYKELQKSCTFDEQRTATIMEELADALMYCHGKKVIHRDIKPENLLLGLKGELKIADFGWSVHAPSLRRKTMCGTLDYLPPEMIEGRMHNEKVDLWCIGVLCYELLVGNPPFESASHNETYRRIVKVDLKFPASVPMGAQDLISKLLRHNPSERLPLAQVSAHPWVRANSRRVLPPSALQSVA
Experimental: The AuroraB HTRF assay begins with AuroraB in the presence of ATP phosphorylating the biotinylated peptide Histone H3. The reaction incubates for about 90 min. the reaction is quentched by addition of detection reagents, which stop the reaction by diluting out the enzyme and chelating the metals due to the presence of EDTA. After addition, the assay is incubated for about 60 min to allow detection reagents to equilibrate.
The AuroraB HTRF assay comprises 1 μL of compound in 100% DMSO, 20 μL of ATP and biotinylated Histone H3, and 20 μL of AuroraB FL His for a final volume of 41 μL. The final concentration of Histone H3 is 0.1 μM. The final concentration of ATP is 23 μM (Km(app)=23 μM+/−2.6) and the final concentration of AuroraB is 400 pM. Buffer conditions are as follows: 50 mM HEPES pH 7.5, 5 mM NaCl, 0.5 mM MgCl, 0.5 mM MnCl, 2 mM DTT, 0.05% BSA.
(§1) The assay is quenched and stopped with 160 μL of detection reagent. Detection reagents are as follows: Buffer made of 50 mM Tris, pH 7.5, 100 mM NaCl, 3 mM EDTA, 0.05% BSA, 0.1% Tween20. Added to this buffer prior to reading is Steptavidin allophycocyanin (SA-APC) at a final conc in the assay of 0.001 mg/mL, and europilated anti-phosphoHistoneH3 Ab (Eu-anti-HisH3) at a final conc of 0.064 nM.
(§2) The assay plate is read in either a Discovery or a RubyStar. The eu-anti-HisH3 is excited at 320 nm and emits at 615 nm to excite the SA-APC which in turn emits at 655 nm. The ratio of SA-APC at 655 nm (excited due to close proximity to the Eu-anti-HisH3 because of phosphorylation of the peptide) to free Eu-anti-HisH3 at 615 nm will give substrate phosphorylation.
Many of the Examples described herein were tested, and fund to be active compounds. Table I includes related biological data, which may be interpreted using the activity gauge below.

AuroraA-TPX2 = target: T2, AuroraA-TPX2 (Homo sapiens, UniProt O14965); assay: AuroraA-TPX2 Homogeneous Time Resolved Fluorescent (HTRF) kinase assay; assay type: biochemical; settings: average; ATP about 1 μM; read-out: AurA_IC50_IP (uM Avg)
T2 construct: 20 μL of AuroraA-TPX2 KD GST; GST
T2 sequence (O14965 133-383 limits assumed): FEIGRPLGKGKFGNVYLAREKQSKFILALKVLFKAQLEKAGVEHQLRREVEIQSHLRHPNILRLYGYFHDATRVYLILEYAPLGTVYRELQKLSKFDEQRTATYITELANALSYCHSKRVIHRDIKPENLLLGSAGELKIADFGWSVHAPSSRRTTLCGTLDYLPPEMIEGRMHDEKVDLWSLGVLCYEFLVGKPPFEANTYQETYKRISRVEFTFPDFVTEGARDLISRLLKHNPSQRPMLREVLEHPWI
T2 sequence (Q9ULW0 1-43 partner limits assumed): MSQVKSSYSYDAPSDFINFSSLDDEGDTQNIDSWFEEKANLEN
Experimental: The Aurora-A HTRF assay begins with Aurora-A in the presence of ATP phosphorylating the biotinylated peptide PLK. The reaction incubates for about 120 min. Detection reagents are added to quench the reaction. These agents stop the reaction by diluting out the enzyme and chelating the metals due to the presence of EDTA. After addition, the assay is incubated overnight to allow the detection reagents to equilibrate.
The AuroraA HTRF assay comprises 1 μL of compound in 100% DMSO, 20 μL of ATP and biotinylated PLK, and 20 μL of AuroraA-TPX2 KD GST for a final volume of about 41 μL. The final concentration of PLK is about 1 μM. The final concentration of ATP is about 1 μM (Km(app)=1 μM+/−0.1) and the final concentration of AuroraA is about 5 nM. Buffer conditions are as follows: 60 mM HEPES pH 7.5, 25mM NaCl, 10 mM MgCl, 2 mM DTT, 0.05% BSA.
as §1, with “0.0005” for “0.001”, “anti-phosphoPLK” for “anti-phosphoHistoneH3”, “(Eu-anti-PLK)” for “(Eu-anti-HisH3)”, “0.02” for “0.064”
as §2, with “eu-anti-PLK” for “eu-anti-HisH3”, “Eu-anti-PLK” for “Eu-anti-HisH3”
Many of the Examples described herein were tested and found to be active compounds. Table I includes related biological data, which may be interpreted using the activity gauge below.

Row | EC50 (HeLa cells) | IC50 (AuroraB) | IC50 (AuroraA-TPX2) | SMILES
1 | 0.1 to 0.5 µM | 0.1 to 0.5 µM | 1 to 5 µM | CNC(=O)c1cc(Sc2ccc(Nc3nnc(-c4ccc(Cl)cc4)c4ccccc34)cc2)ccn1 [Example 25, 4-((4-((4-(4-chlorophenyl)-1-phthalazinyl)amino)phenyl)thio)-N-methyl-2-pyridinecarboxamide]
2 | 0.1 to 0.5 µM | 0.1 to 0.5 µM | 0.1 to 0.5 µM | CNC(=O)c1cc(Oc2ccc(Nc3nnc(-c4ccc(Cl)cc4)c4ccccc34)cc2)ccn1 [Example 26, 4-((4-((4-(4-chlorophenyl)-1-phthalazinyl)amino)phenyl)oxy)-N-methyl-2-pyridinecarboxamide]
3 | 0.1 to 0.5 µM | < 0.1 µM | 0.1 to 0.5 µM | Nc1cc(Sc2ccc(Nc3nnc(-c4ccc(Cl)cc4)c4ccccc34)cc2)ccn1 [Example 27, N-(4-((2-amino-4-pyridinyl)thio)phenyl)-4-(4-chlorophenyl)-1-phthalazinamine]
4 | 0.1 to 0.5 µM | < 0.1 µM | 0.1 to 0.5 µM | CNc1cc(Sc2ccc(Nc3nnc(-c4ccc(Cl)cc4)c4ccccc34)cc2)ccn1 [Example 28, 4-(4-chlorophenyl)-N-(4-((2-(methylamino)-4-pyridinyl)thio)phenyl)-1-phthalazinamine]
5 | 1 to 5 µM | 0.1 to 0.5 µM | 0.1 to 0.5 µM | CS(=O)(=O)CCNc1cc(Oc2ccc(Nc3nnc(-c4ccc(Cl)cc4)c4ccccc34)cc2)ccn1 [Example 29, 4-(4-chlorophenyl)-N-(4-((2-((2-(methylsulfonyl)ethyl)amino)-4-pyridinyl)oxy)phenyl)-1-phthalazinamine]
6 | 0.1 to 0.5 µM | < 0.1 µM | 0.1 to 0.5 µM | Clc1ccc(-c2nnc(Nc3ccc(Oc4ccnc(/C=C/c5ccccc5)n4)cc3)c3ccccc23)cc1 [Example 30, 4-(4-chlorophenyl)-N-(4-((2-((E)-2-phenylethenyl)-4-pyrimidinyl)oxy)phenyl)-1-phthalazinamine]
7 | 0.1 to 0.5 µM | < 0.1 µM | 0.1 to 0.5 µM | OCCNc1nccc(Sc2ccc(Nc3nnc(-c4ccccc4)c4ccccc34)cc2)n1 [Example 31, 2-((4-((4-((4-phenyl-1-phthalazinyl)amino)phenyl)sulfanyl)-2-pyrimidinyl)amino)ethanol]
8 | < 0.1 µM | < 0.1 µM | < 0.1 µM | OCCNc1nccc(Sc2ccc(Nc3nnc(-c4ccc(Cl)cc4)c4ccccc34)cc2)n1 [Example 32, 2-((4-((4-((4-(4-chlorophenyl)-1-phthalazinyl)amino)phenyl)sulfanyl)-2-pyrimidinyl)amino)ethanol]
9 | 1 to 5 µM | 1 to 5 µM | – | CNCCNc1nccc(Sc2ccc(Nc3nnc(-c4ccccc4)c4ccccc34)cc2)n1 [Example 33, N-methyl-N′-(4-((4-((4-phenyl-1-phthalazinyl)amino)phenyl)sulfanyl)-2-pyrimidinyl)-1,2-ethanediamine]
10 | 0.1 to 0.5 µM | 0.5 to 1 µM | 1 to 5 µM | CNCCNc1nccc(Sc2ccc(Nc3nnc(-c4ccc(Cl)cc4)c4ccccc34)cc2)n1 [Example 34, N-(4-((4-((4-(4-chlorophenyl)-1-phthalazinyl)amino)phenyl)sulfanyl)-2-pyrimidinyl)-N′-methyl-1,2-ethanediamine]
11 | < 0.1 µM | < 0.1 µM | 0.1 to 0.5 µM | Clc1ccc(-c2nnc(Nc3ccc(Sc4ccnc(/C=C/c5ccccc5)n4)cc3)c3ccccc23)cc1 [Example 35, 4-(4-chlorophenyl)-N-(4-((2-((E)-2-phenylethenyl)-4-pyrimidinyl)sulfanyl)phenyl)-1-phthalazinamine]
12 | < 0.1 µM | < 0.1 µM | < 0.1 µM | Clc1ccc(-c2nnc(Nc3ccc(Sc4ccnc(-c5cc6ccccc6[nH]5)n4)cc3)c3ccccc23)cc1 [Example 36, 4-(4-chlorophenyl)-N-(4-((2-(1H-indol-2-yl)-4-pyrimidinyl)sulfanyl)phenyl)-1-phthalazinamine]
13 | < 0.1 µM | < 0.1 µM | < 0.1 µM | Cc1csc(-c2nnc(Nc3ccc(Sc4ccnc(-c5cc6ccccc6[nH]5)n4)cc3)c3ccccc23)c1 [Example 37, N-(4-((2-(1H-indol-2-yl)-4-pyrimidinyl)sulfanyl)phenyl)-4-(4-methyl-2-thiophenyl)-1-phthalazinamine]
14 | – | < 0.1 µM | 0.1 to 0.5 µM | Clc1ccc(-c2nnc(Nc3ccc(Oc4ccnc(/C=C/c5ccccc5)c4)cc3)c3ccccc23)cc1 [Example 40, 4-(4-chlorophenyl)-N-(4-((2-((E)-2-phenylethenyl)-4-pyridinyl)oxy)phenyl)-1-phthalazinamine]
15 | – | < 0.1 µM | 0.1 to 0.5 µM | Cc1ccc(-c2nnc(Nc3ccc(Sc4ccnc(-c5cc6ccccc6[nH]5)n4)cc3)c3ccccc23)cc1N [Example 41, 4-(3-amino-4-methylphenyl)-N-(4-((2-(1H-indol-2-yl)-4-pyrimidinyl)sulfanyl)phenyl)-1-phthalazinamine]
16 | 1 to 5 µM | 0.1 to 0.5 µM | – | c1ccc(-c2nnc(Nc3ccc(Sc4ccnc(-c5cc6ccccc6[nH]5)n4)cc3)c3ccccc23)cc1 [Example 42, N-(4-((2-(1H-indol-2-yl)-4-pyrimidinyl)sulfanyl)phenyl)-4-phenyl-1-phthalazinamine]
17 | 0.1 to 0.5 µM | 1 to 5 µM | – | CSc1nccc(Oc2ccc(Nc3nnc(-c4ccccc4)c4ccccc34)cc2)n1 [Example 43, N-(4-((2-(methylthio)-4-pyrimidinyl)oxy)phenyl)-4-phenyl-1-phthalazinamine]
